Experimental data from patent US12492173B2, “Herbicidal substituted N-tetrazolyl aryl carboxamides” (Bayer Aktiengesellschaft, priority 2019, dated 2025).

Key:
Format in all cases: in vivo
Hordeum murinum = test: Pre-emergence herbicidal action, HORMU; details: dosage 320 g/ha; for herbicidal activity HORMU: scored visually after 3 weeks vs untreated controls (100% = plants have died)
Description: (§1) 1. Pre-Emergence Herbicidal Action Against Harmful Plants Seeds of monocotyledonous and dicotyledonous weed plants and crop plants are laid out in sandy loam soil in wood-fiber pots and covered with soil. The compounds of the invention, formulated in the form of wettable powders (WP) or as emulsion concentrates (EC), are then applied to the surface of the covering soil in the form of an aqueous suspension or emulsion at a water application rate equating to 600 to 800 l/ha, with addition of 0.2% wetting agent. After the treatment, the pots are placed in a greenhouse and kept under good growth conditions for the trial plants. The damage to the test plants is scored visually after a test period of 3 weeks by comparison with untreated controls (herbicidal activity in percent (%): 100% activity=the plants have died, 0% activity=like control plants). […] The tables below illustrate, in an exemplary manner, the […] herbicidal action of the compounds according to the invention, the herbicidal activity being stated in percent. [table] In the experiments that follow, herbicidal action of numerous inventive compounds and the known compounds that are structurally closest from D1 (WO 2012/028579 A1) and D2 (WO 2018/202535 A1) were compared under the above-specified conditions by the pre-emergence and post-emergence method. The example numbers given in the tables relate to the compounds disclosed in the respective documents. In addition to the compounds disclosed in D1 and D2, the following compounds V-1 to V-14 that are encompassed by D1 or D2 but are not compounds specified therein were used in the comparative experiments: • V-1: 2-(methylsulfanyl)-3-(methylsulfinyl)-N-(1-methyl-1H-tetrazol-5-yl)-4-(trifluoromethyl)benzamide • V-2: 2-(methylsulfanyl)-3-(methylsulfonyl)-N-(1-methyl-1H-tetrazol-5-yl)-4-(trifluoromethyl)benzamide • V-3: 2,3-bis(ethylsulfanyl)-N-(1-methyl-1H-tetrazol-5-yl)-4-(trifluoromethyl)benzamide • V-4: 2-chloro-3-(ethylsulfanyl)-N-(1-methyl-1H-tetrazol-5-yl)-4-(trifluoromethyl)benzamide • V-5: 2-chloro-4-iodo-3-(methylsulfanyl)-N-(1-methyl-1H-tetrazol-5-yl)benzamide • V-6: 2-chloro-4-iodo-3-(methylsulfinyl)-N-(1-methyl-1H-tetrazol-5-yl)benzamide • V-7: 2-chloro-4-iodo-3-(methylsulfonyl)-N-(1-methyl-1H-tetrazol-5-yl)benzamide • V-8: 2-bromo-3-(methylsulfanyl)-N-(1-methyl-1H-tetrazol-5-yl)-4-(trifluoromethyl)benzamide • V-9: 2-bromo-3-(methylsulfinyl)-N-(1-methyl-1H-tetrazol-5-yl)-4-(trifluoromethyl)benzamide • V-10: 2-bromo-3-(methylsulfonyl)-N-(1-methyl-1H-tetrazol-5-yl)-4-(trifluoromethyl)benzamide • V-11: 2-bromo-3-(ethylsulfanyl)-N-(1-methyl-1H-tetrazol-5-yl)-4-(trifluoromethyl)benzamide • V-12: 2-bromo-3-(ethylsulfinyl)-N-(1-methyl-1H-tetrazol-5-yl)-4-(trifluoromethyl)benzamide • V-13: 2-bromo-3-(ethylsulfonyl)-N-(1-methyl-1-1H-tetrazol-5-yl)-4-(trifluoromethyl)benzamide • V-14: 2-cyclopropyl-3-(ethylsulfanyl)-N-(1-methyl-1H-tetrazol-5-yl)-4-(trifluoromethyl)benzamide Herbicidal Pre-Emergence Action: […]

Lolium rigidum = test: Pre-emergence herbicidal action, LOLRI; details: dosage 320 g/ha, scored visually after 3 weeks vs untreated controls (100% = plants have died)
Description: as §1

Stellaria media = test: Pre-emergence herbicidal action, STEME; parameters: key to Herbicidal action against STEME: % activity: 100 = plants have died, 0 = like control plants; details: for herbicidal activity STEME: scored visually after 3 weeks vs untreated controls (100% = plants have died); for Herbicidal action against STEME: comparative experiment, 20 g of a.i./ha
Summary of the method: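 Pre-emergence soil spray over sandy loam-covered seeds; greenhouse 3 weeks; % visual damage (0% = control, 100% = dead).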

Abutilon theophrasti = test: Post-emergence herbicidal action, ABUTH; parameters: key: % herbicidal action vs untreated; 100 = plants died, 0 = like control
Summary of the method: (§2)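 Greenhouse weeds grown in sandy loam were sprayed at the one-leaf stage, 2–3 weeks after sowing, with WP or EC formulations at 600–800 l/ha water plus 0.2% wetting agent. Damage scored visually about 3 weeks later, in percent against untreated controls (100% = plants dead).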

Polygonum convolvulus = test: Post-emergence herbicidal action, POLCO
Summary of the method: as §2

Viola tricolor = test: Post-emergence herbicidal action, VIOTR; parameters: key: % herbicidal action vs untreated; 100 = plants died, 0 = like control
Summary of the method: as §2

Cyperus esculentus = test: Post-emergence herbicidal action, CYPES; parameters: key: % herbicidal action vs untreated; 100 = plants died, 0 = like control; details: Dosage 80 g/ha
Summary of the method: as §2

| Structure (SMILES) | herbicidal activity HORMU (Hordeum murinum) [%] | herbicidal activity LOLRI (Lolium rigidum) [%] | herbicidal activity STEME (Stellaria media; dosage 320 g/ha) [%] | herbicidal action ABUTH (Abutilon theophrasti; post-emergence, dosage 80 g/ha) [%] | herbicidal action POLCO (Polygonum convolvulus; post-emergence, dosage 80 g/ha) [%] | herbicidal action VIOTR (Viola tricolor; post-emergence, dosage 80 g/ha) [%] | herbicidal action ABUTH (Abutilon theophrasti; Dosage 80 g/ha) | herbicidal action POLCO (Polygonum convolvulus; Dosage 80 g/ha) | herbicidal action VIOTR (Viola tricolor; Dosage 80 g/ha) | Herbicidal action against STEME (Stellaria media) | herbicidal action CYPES (Cyperus esculentus) | herbicidal action HORMU (Hordeum murinum) [%] | herbicidal action STEME (Stellaria media; dosage 320 g/ha) [%] |
| --- | --- | --- | --- | --- | --- | --- | --- | --- | --- | --- | --- | --- | --- |
| CC[S+]([O-])Cc1c(C(F)(F)F)ccc(C(=O)Nc2nnnn2C)c1Cl (racemic) [Example 1-300] | 100 | 100 | 100 | 90 | 100 | 100 | – | – | – | – | – | – | – |
| COCC[S+]([O-])Cc1c(C(F)(F)F)ccc(C(=O)Nc2nnnn2C)c1Cl (racemic) [Example 1-306] | 90 | 90 | 100 | – | – | – | 90 | 90 | 100 | – | – | – | – |
| Cn1nnnc1NC(=O)c1ccc(C(F)(F)F)c(C[S+]([O-])CC(F)(F)F)c1Cl (racemic) [Example 1-312] | 100 | 90 | 100 | 100 | 100 | 100 | – | – | – | – | – | – | – |
| Cn1nnnc1NC(=O)c1ccc(I)c(C[S+](C)[O-])c1Cl (racemic) [Example 1-363] | 100 | 100 | 100 | 100 | – | 100 | – | – | – | 100 | – | – | – |
| CSc1c(C(=O)Nc2nnnn2C)ccc(C(F)F)c1C[S+](C)[O-] (centres unmarked) [Example 1-171] | 80 | – | 100 | – | – | – | 100 | 100 | 90 | – | – | – | – |
| Cn1nnnc1NC(=O)c1ccc(C(F)(F)F)c(CSCC(F)(F)F)c1Cl [Example 1-311] | 100 | 100 | 100 | – | – | – | 100 | – | 100 | – | 100 | – | – |
| Cn1nnnc1NC(=O)c1ccc(C(F)(F)F)c(CS(=O)(=O)CC2CC2)c1Cl [Example 1-316] | 90 | 90 | 100 | – | – | – | 100 | 100 | 100 | – | – | – | – |
| Cn1nnnc1NC(=O)c1ccc(I)c(CS(C)(=O)=O)c1Cl [Example 1-364] | 90 | 80 | 100 | – | – | – | 100 | 100 | 100 | 90 | – | – | – |
| Cn1nnnc1NC(=O)c1ccc(C(F)(F)F)c(CS(C)(=O)=O)c1C(F)(F)C(F)(F)F [Example 1-552] | 80 | – | 100 | – | – | – | 90 | 90 | 90 | – | – | – | – |
| CCn1nnnc1NC(=O)c1ccc(C(F)(F)F)c(C[S+](C)[O-])c1SC (centres unmarked) [Example 2-162] | 90 | – | 100 | – | – | – | 100 | 90 | 100 | – | – | – | – |
| CCn1nnnc1NC(=O)c1ccc(C(F)F)c(CSC)c1SC [Example 2-170] | 80 | – | 100 | – | – | – | 100 | 90 | 100 | – | – | – | – |
| CCn1nnnc1NC(=O)c1ccc(C(F)(F)F)c(C[S+]([O-])CC)c1Cl (centres unmarked) [Example 2-300] | 100 | 100 | 100 | 90 | 100 | 100 | – | – | – | – | – | – | – |
| CCn1nnnc1NC(=O)c1ccc(C(F)(F)F)c(CSCC(F)(F)F)c1Cl [Example 2-311] | 80 | 90 | 100 | – | – | – | 90 | 90 | 100 | – | – | – | – |
| CCn1nnnc1NC(=O)c1ccc(C(F)(F)F)c(C[S+]([O-])CC2CC2)c1Cl (centres unmarked) [Example 2-315] | 100 | 90 | 100 | – | – | – | 100 | 100 | 100 | – | – | – | – |
| CCn1nnnc1NC(=O)c1ccc(C(F)F)c(C[S+]([O-])CC)c1Cl (centres unmarked) [Example 2-324] | 100 | 90 | 100 | 100 | 100 | 100 | – | – | – | – | – | – | – |
| CCn1nnnc1NC(=O)c1ccc(I)c(C[S+](C)[O-])c1Cl (centres unmarked) [Example 2-363] | 100 | 100 | 100 | – | – | – | 100 | 100 | 100 | – | – | – | – |
| CCCn1nnnc1NC(=O)c1ccc(C(F)(F)F)c(C[S+](C)[O-])c1SC (centres unmarked) [Example 3-162] | 100 | 90 | 100 | 100 | 100 | 100 | – | – | – | – | – | – | – |
| CCCn1nnnc1NC(=O)c1ccc(C(F)(F)F)c(CS(C)(=O)=O)c1SC [Example 3-163] | 90 | – | 100 | – | – | – | 100 | 90 | 100 | – | – | – | – |
| CCCn1nnnc1NC(=O)c1ccc(C(F)F)c(C[S+](C)[O-])c1SC (centres unmarked) [Example 3-171] | 90 | – | 100 | – | – | – | 100 | 90 | 100 | – | – | – | – |
| CCCn1nnnc1NC(=O)c1ccc(C(F)F)c(CS(C)(=O)=O)c1SC [Example 3-172] | 80 | – | 100 | – | – | – | 100 | 80 | 90 | – | – | – | – |
| C=CCSCc1c(C(F)(F)F)ccc(C(=O)Nc2nnnn2CCC)c1Cl [Example 3-308] | 80 | 80 | 100 | – | – | – | 100 | – | 80 | – | 90 | – | – |
| CCCn1nnnc1NC(=O)c1ccc(C(F)F)c(CS(=O)(=O)CC)c1Cl [Example 3-325] | 100 | 100 | 100 | – | – | – | 100 | – | 100 | – | 90 | – | – |
| CCCn1nnnc1NC(=O)c1ccc(I)c(C[S+](C)[O-])c1Cl (centres unmarked) [Example 3-363] | – | – | – | – | – | – | 90 | 90 | 100 | – | – | 100 | 100 |
